# Laboratory results taken from patent US20240425464A1, “Substituted Monohydrazides as Potent Antifungal Agents” (University of Kentucky Research Foundation, priority 2023, published 2024).
# Like-named read-outs stand apart in the source and are kept apart here.
# Assays:
# [1] = test system: Candida auris strain AR Bank #384 (K); experiment: MIC determination by in vitro antifungal assay; assay type: cell-based
# Procedure: (§1) The antifungal agent amphotericin B (AmB) was purchased from VWR (Radnor PA, USA). AmB was dissolved in DMSO at a final concentration of 5 mg/mL and was stored at −20° C., protected from light. Candida albicans American Type Culture Collection (ATCC) 10231 (strain A), C. albicans ATCC 64124 (B), and C. albicans ATCC MYA-2876 (C) were obtained from Utah State University. C. albicans ATCC 90819 (D), C. albicans ATCC MYA-2310 (E), C. albicans ATCC MYA-1237 (F), C. albicans ATCC MYA-1003 (G), Candida glabrata ATCC 2001 (H), Candida krusei ATCC 6258 (I), Candida parapsilosis ATCC 22019 (J), Cryptococcus neoformans ATCC MYA-895 (M), Aspergillus terreus ATCC MYA-3633 (N), and Aspergillus flavus ATCC MYA-3631 (0) were obtained from the American Type Culture Collection (ATCC; Manassas, VA, USA). Aspergillus nidulans ATCC 38163 (P) was obtained from University of Kentucky. Clinically derived Aspergillus fumigatus NRRL 163 (Q), A. fumigatus NRRL 5109 (R), and A. fumigatus NRRL 6113 (S) were obtained from Northern Regional Research Laboratory (NRRL). Candida auris 384 (K), C. auris 390 (L), and fungal strains 381-400 (including 10 C. auris (AR Bank #381-390), 3 Candida duobushaemulonii (AR Bank #391, AR Bank #392, and AR Bank #394), 2 Candida haemulonii (AR Bank #393 and AR Bank #395), 1 Kodameae ohmeri (AR Bank #396), 1 C. krusei (AR Bank #397), 1 Candida lusitaniae (AR Bank #398), and 2 Saccharomyces cerevisiae strains (AR Bank #399 and AR Bank #400)) were part of a larger fungal library from the AR Bank maintained by the Centers for Disease Control and Prevention (CDC; Atlanta, GA, USA). Filamentous fungi and yeasts were cultivated at 35° C. in RPMI 1640 medium (with L-glutamine, without sodium bicarbonate, Sigma-Aldrich, St. Louis, MO) buffered to a pH of 7.0 with 0.165 M morpholinepropanesulfonic acid (MOPS) buffer (Sigma-Aldrich). For cytotoxicity assays, HepG2 and the mouse macrophage cell line J774A.1 were obtained from University of Kentucky. The human embryonic kidney cell line, HEK-293, was bought from the ATCC. Mammalian cells were grown in Dulbecco's Modified Eagle's Medium (DMEM) (from VWR) with 10% fetal bovine serum (FBS) (from VWR) and 1% Pen/Strep (from ATCC). Cell lines were cultured at 37° C. with 5% CO2 and passaged by trypsinization with 0.05% trypsin: 0.53 mM EDTA (from Sigma-Aldrich).
# (§2) From the actively growing yeast culture, 100 µL were then transferred to 900 μL of RPMI 1640 medium and re-adjusted to achieve OD600 of 0.12 (˜1×10^6 CFU/mL). The cell suspension was further diluted to achieve 1:100 in RPMI 1640 medium.
# (§3) Finally, the activity of these monohydrazides was explored against […] non-Candida strains: Cryptococcus neoformans ATCC MYA-895 (M), Aspergillus terreus ATCC MYA-3633 (N), Aspergillus flavus ATCC MYA-3631 (O), Aspergillus nidulans ATCC 38163 (P), Aspergillus fumigatus NRRL 163 (Q), A. fumigatus NRRL 5109 (R), and A. fumigatus NRRL 6113 (S) (Tables 1A and 1B). The double dilution method was used with concentrations ranging from 0.06 to 31.3 j·tg mL^−1 for monohydrazides 1a-9j, and the commercially available positive antifungal control amphotericin B (AmB).
# [2] = test system: C. auris strain AR Bank #390 (L); experiment: MIC determination by in vitro antifungal assay; assay type: cell-based, Candida auris
# Procedure: as §1, §2, §3
# [3] = C. auris AR Bank # 384 (K) (Table 2B)
# [4] = strain K = C. auris AR Bank # 0384 (Tables 1A/1B)
# [5] = C. auris AR Bank # 390 (L) (Table 2B)
# [6] = strain L = C. auris AR Bank # 0390 (Tables 1A/1B)
# [7] = Candidozyma auris, C. auris AR Bank # 384 (K) (Table 2B), read-out: MIC
# [8] = Candidozyma auris, strain K = C. auris AR Bank # 0384 (Tables 1A/1B), read-out: MIC
# [9] = Candidozyma auris, C. auris AR Bank # 390 (L) (Table 2B), read-out: MIC
# [10] = Candidozyma auris, strain L = C. auris AR Bank # 0390 (Tables 1A/1B), read-out: MIC
# [11] = Candidozyma auris, C. auris AR Bank #384 (K), read-out: MIC
# [12] = Candidozyma auris, C. auris AR Bank #390 (L), read-out: MIC
SMILES,"MIC [1, 4] [μg/mL^−1]","MIC [2, 6] [μg/mL^−1]","MIC [1, 8] [µg/mL]","MIC [2, 10] [µg/mL]",other results
"C[C@@H]1[C@H](O)[C@@H](C)/C=C/C=C/C=C/C=C/C=C/C=C/C=C/[C@H](O[C@@H]2O[C@H](C)[C@@H](O)[C@H](N)[C@@H]2O)C[C@@H]2O[C@](O)(C[C@@H](O)C[C@@H](O)[C@H](O)CC[C@@H](O)C[C@@H](O)CC(=O)O[C@H]1C)C[C@H](O)[C@H]2C(=O)O [AmB, amphotericin B, reference compound]",1.95,1.95,–,–,"MIC ([1]; C. auris AR Bank #384 (K)): 1.95 μg/mL^−1; MIC [1, 3]: 1.95 μg/mL^−1; MIC ([2]; C. auris AR Bank #390 (L)): 1.95 μg/mL^−1; MIC [2, 5]: 1.95 μg/mL^−1"
O=C(NNc1cccc(F)c1)c1ccc(F)cc1F [Compound 1a],1.95,0.24,–,–,–
O=C(NNc1cccc(Cl)c1)c1ccc(F)cc1F [Compound 1b],–,–,13.6,7.8,"MIC [1, 7]: 7.8 µg/mL; MIC [2, 9]: 7.8 µg/mL"
COc1cccc(NNC(=O)c2ccc(F)cc2F)c1 [Compound 1c],–,–,1.95,1.95,–
O=C(NNc1ccc(F)cc1)c1ccc(F)cc1F [Compound 1d],–,–,1.95,1.95,–
O=C(NNc1ccc(Cl)cc1)c1ccc(F)cc1F [Compound 1e],7.8,>31.3,–,–,–
COc1ccc(NNC(=O)c2ccc(F)cc2F)cc1 [Compound 1f],–,–,1.95,1.95,–
O=C(NNc1ccc(F)cc1F)c1ccc(F)cc1F [Compound 1g],–,–,15.6,7.8,–
O=C(NNc1cc(F)ccc1F)c1ccc(F)cc1F [Compound 1h],–,–,31.3,15.6,–
O=C(NNc1cc(F)cc(F)c1)c1ccc(F)cc1F [Compound 1i],–,–,15.6,15.6,–
O=C(NNc1cc(Cl)cc(Cl)c1)c1ccc(F)cc1F [Compound 1j],–,–,> 31.3,> 31.3,"MIC [1, 7]: 15.6 µg/mL; MIC [2, 9]: > 31.3 µg/mL"
O=C(NNc1cccc(F)c1)c1ccccn1 [Compound 2a],1.95,0.33,–,–,MIC ([1]; C. auris AR Bank #384 (K)): 1.95 μg/mL^−1; MIC ([2]; C. auris AR Bank #390 (L)): 0.24 μg/mL^−1
O=C(NNc1cccc(Cl)c1)c1ccccn1 [Compound 2b],0.98,0.98,–,–,MIC ([1]; C. auris AR Bank #384 (K)): 0.98 μg/mL^−1; MIC ([2]; C. auris AR Bank #390 (L)): 0.49 μg/mL^−1
COc1cccc(NNC(=O)c2ccccn2)c1 [Compound 2c],0.98,0.98,–,–,MIC ([1]; C. auris AR Bank #384 (K)): 0.98 μg/mL^−1; MIC ([2]; C. auris AR Bank #390 (L)): 0.98 μg/mL^−1
O=C(NNc1ccc(F)cc1)c1ccccn1 [Compound 2d],–,–,3.9,0.98,"MIC [1, 11]: 3.9 µg/mL; MIC [2, 12]: 0.98 µg/mL"
O=C(NNc1ccc(Cl)cc1)c1ccccn1 [Compound 2e],1.95,1.95,–,–,MIC ([1]; C. auris AR Bank #384 (K)): 1.95 μg/mL^−1; MIC ([2]; C. auris AR Bank #390 (L)): 1.95 μg/mL^−1
COc1ccc(NNC(=O)c2ccccn2)cc1 [Compound 2f],–,–,3.9,0.12,"MIC [1, 11]: 3.9 µg/mL; MIC [2, 12]: 0.12 µg/mL"

SMILES,"MIC [1, 4] [μg/mL^−1]","MIC [2, 6] [μg/mL^−1]","MIC [1, 8] [µg/mL]","MIC [2, 10] [µg/mL]",other results
O=C(NNc1ccc(F)cc1F)c1ccccn1 [Compound 2g],–,–,0.49,0.12,"MIC [1, 11]: 0.49 µg/mL; MIC [2, 12]: 0.12 µg/mL"
O=C(NNc1cc(F)ccc1F)c1ccccn1 [Compound 2h],–,–,0.24,0.98,"MIC [1, 11]: 1.95 µg/mL; MIC [2, 12]: 0.98 µg/mL"
O=C(NNc1cc(F)cc(F)c1)c1ccccn1 [Compound 2i],–,–,0.24,0.49,"MIC [1, 11]: 0.98 µg/mL; MIC [2, 12]: 0.49 µg/mL"
O=C(NNc1cc(Cl)cc(Cl)c1)c1ccccn1 [Compound 2j],–,–,7.8,1.95,"MIC [1, 11]: 7.8 µg/mL; MIC [2, 12]: 3.9 µg/mL"
O=C(NNc1cccc(F)c1)c1ccc(F)cn1 [Compound 3a],1.95,0.98,–,–,–
COc1cccc(NNC(=O)c2ccc(F)cn2)c1 [Compound 3c],1.95,0.98,–,–,"MIC [1, 3]: 0.49 μg/mL^−1; MIC [2, 5]: 3.9 μg/mL^−1"
O=C(NNc1ccc(F)cc1)c1ccc(F)cn1 [Compound 3d],3.9,0.98,–,–,"MIC [1, 3]: 0.98 μg/mL^−1; MIC [2, 5]: 3.9 μg/mL^−1"
O=C(NNc1ccc(Cl)cc1)c1ccc(F)cn1 [Compound 3e],7.8,7.8,–,–,"MIC [1, 3]: 7.8 μg/mL^−1; MIC [2, 5]: 7.8 μg/mL^−1"
COc1ccc(NNC(=O)c2ccc(F)cn2)cc1 [Compound 3f],3.9,0.49,–,–,–
O=C(NNc1ccc(F)cc1F)c1ccc(F)cn1 [Compound 3g],–,–,7.8,3.9,"MIC [1, 7]: 0.98 µg/mL; MIC [2, 9]: 3.9 µg/mL"
O=C(NNc1cccc(F)c1)c1ccc(Br)cn1 [Compound 4a],1.95,1.95,–,–,–
COc1cccc(NNC(=O)c2ccc(Br)cn2)c1 [Compound 4c],–,–,1.95,0.98,–
O=C(NNc1ccc(F)cc1)c1ccc(Br)cn1 [Compound 4d],–,–,7.8,3.9,"MIC [1, 7]: 1.95 µg/mL; MIC [2, 9]: 7.8 µg/mL"
COc1ccc(NNC(=O)c2ccc(Br)cn2)cc1 [Compound 4f],–,–,1.95,1.95,–
O=C(NNc1ccc(F)cc1F)c1ccc(Br)cn1 [Compound 4g],–,–,3.9,31.3,–
O=C(NNc1cccc(F)c1)c1cccc(F)n1 [Compound 5a],1.95,3.9,–,–,–
O=C(NNc1ccc(F)cc1)c1cccc(F)n1 [Compound 5d],–,–,1.95,0.98,"MIC [1, 7]: 0.49 µg/mL; MIC [2, 9]: 1.95 µg/mL"
